1 compound from publication PMC7071059, “Targeting Receptor Tyrosine Kinase VEGFR-2 in Hepatocellular Cancer: Rational Design, Synthesis and Biological Evaluation of 1,2-Disubstituted Benzimidazoles” (Molecules, 2020) can be followed below.

The target in experiment [1] is PDGFR-β (Homo sapiens, UniProt P09619). Put plainly: Biochemical kinase assay.
Experimental: (§1) This assay was carried out using the VEGFR-2 kinase enzyme system or FGFR-1 kinase enzyme system and Kinase-Glo Plus luminescence kinase (Promega) kits according to the manufacturers´ protocols. This assay evaluated the activity of kinase by measuring the amount of ATP remaining in solution after a kinase reaction. The luminescent signal from the assay was related to the quantity of ATP available, which was inversely proportional to the amount of kinase activity. […] Subsequently, serial dilutions were carried out, and 5 µL of the dilution was added to a 50 µL reaction. The enzymatic reactions were performed at 30 °C for 45 minutes. […] After the enzymatic reaction, 50 µL of Kinase-Glo Plus Luminescence kinase assay solution was added to each reaction, and the plates were incubated for 15 minutes at room temperature. The luminescence signal was measured using a Tecan–spark multimode microplate reader. The difference between luminescence intensities in the absence of Kinase (Lut) and in the presence of Kinase (Luc) was defined as 100% activity (Lut − Luc). Using a luminescence signal (Lu) in the presence of the compound, % activity was calculated as: % activity = {(Lut − Lu)/(Lut − Luc)}×100%, where Lu = the luminescence intensity in the presence of the compound.
Experiment [2] addresses FGFR-1 (Homo sapiens, UniProt P11362). Put plainly: Biochemical kinase assay (Kinase-Glo Plus luminescence).
Experimental: as §1
Experiment [3] deals with HepG2 cells. In words: Apoptosis assay, Annexin V-FITC/PI flow cytometry. Type of experiment: cell-based, human. Conditions: 48 h; for early apoptotic phase (Q4): control 0.80%; for late apoptotic phase (Q2): control 4.59%. From the text: Moreover, in order to examine the effect of compound 17a on cell apoptosis (programed cell death), the morphological markers of apoptosis of the HepG2 cell line were examined before and after treatment with 17a. This assay is based on the fact that cells performing apoptosis translocate their phosphatidylserine (PS) phospholipid to the cell surface, which, in turn, can be easily detected by staining with a fluorescent conjugate of annexin V, followed by flow cytometry analysis. Concurrently, the HepG2 cells were stained with propidium iodide (PI), which enters only cells with damaged plasma membranes. This stain allows the discrimination between early apoptotic cells (positive for PS, but negative for PI) from late apoptotic and necrotic cells (positive for both PS and PI).
Apoptosis and necrosis cell populations were determined using an Annexin V-FITC apoptosis detection kit (Abcam Inc., Cambridge Science Park, Cambridge, UK) coupled with 2 fluorescent channels flowcytometry. After treatment with test compounds for 48 h, cells (10^5 cells) were collected by trypsinization and washed twice with ice-cold PBS (pH 7.4). Then, cells were incubated in the dark with 0.5 ml of Annexin V-FITC/PI solution for 30 min in the dark at room temperature, according to the manufacturer’s protocol. After staining, cells were injected via ACEA Novocyte™ flowcytometer (ACEA Biosciences Inc., San Diego, CA, USA) and analyzed for FITC and PI fluorescent signals using FL1 and FL2 signal detectors, respectively (λex/em 488/530 nm for FITC and λex/em 535/617 nm for PI). For each sample, 12,000 events were acquired, and positive FITC and/or PI cells were quantified by quadrant analysis and calculated using ACEA NovoExpress™ software (ACEA Biosciences Inc., San Diego, CA, USA).

Experiment [4] relates to HepG2 cells. Put plainly: Analysis of cell cycle distribution, flow cytometry of propidium iodide-stained nuclei. The settings on record: HepG2, 2 µM, 48 h. Type of experiment: cell-based, human. The procedure:
Based on the promising antiproliferative activity and antiangiogenic activity of series 17, compound 17a was further assayed for its effect on the cell cycle distribution by flow cytometric analyses of propidium iodide-stained nuclei at 2 µM. Cell cycle parameters were compared for HepG2 cells with DMSO as control and after treatment with 17a and incubation for 48 h, and the results were depicted in Figure 8.
After treatment with test compounds for 48 h, cells (10^5 cells) were collected by trypsinization and washed twice with ice-cold PBS (pH 7.4). Cells were resuspended in two milliliters of 60% ice-cold ethanol and incubated at 4 °C for 1 h for fixation. Fixed cells were washed twice again with PBS (pH 7.4) and resuspended in 1 mL of PBS containing 50 µg/mL RNAase A and 10 µg/mL propidium iodide (PI). After 20 min of incubation in dark at 37 °C, cells were analyzed for DNA contents using flow cytometry analysis using an FL2 (λex/em 535/617 nm) signal detector (ACEA Novocyte™ flowcytometer, ACEA Biosciences Inc., San Diego, CA, USA). For each sample, 12,000 events were acquired. The cell cycle distribution was calculated using ACEA NovoExpress™ software (ACEA Biosciences Inc., San Diego, CA, USA).

Sequence of FGFR-1 (P11362 22-822): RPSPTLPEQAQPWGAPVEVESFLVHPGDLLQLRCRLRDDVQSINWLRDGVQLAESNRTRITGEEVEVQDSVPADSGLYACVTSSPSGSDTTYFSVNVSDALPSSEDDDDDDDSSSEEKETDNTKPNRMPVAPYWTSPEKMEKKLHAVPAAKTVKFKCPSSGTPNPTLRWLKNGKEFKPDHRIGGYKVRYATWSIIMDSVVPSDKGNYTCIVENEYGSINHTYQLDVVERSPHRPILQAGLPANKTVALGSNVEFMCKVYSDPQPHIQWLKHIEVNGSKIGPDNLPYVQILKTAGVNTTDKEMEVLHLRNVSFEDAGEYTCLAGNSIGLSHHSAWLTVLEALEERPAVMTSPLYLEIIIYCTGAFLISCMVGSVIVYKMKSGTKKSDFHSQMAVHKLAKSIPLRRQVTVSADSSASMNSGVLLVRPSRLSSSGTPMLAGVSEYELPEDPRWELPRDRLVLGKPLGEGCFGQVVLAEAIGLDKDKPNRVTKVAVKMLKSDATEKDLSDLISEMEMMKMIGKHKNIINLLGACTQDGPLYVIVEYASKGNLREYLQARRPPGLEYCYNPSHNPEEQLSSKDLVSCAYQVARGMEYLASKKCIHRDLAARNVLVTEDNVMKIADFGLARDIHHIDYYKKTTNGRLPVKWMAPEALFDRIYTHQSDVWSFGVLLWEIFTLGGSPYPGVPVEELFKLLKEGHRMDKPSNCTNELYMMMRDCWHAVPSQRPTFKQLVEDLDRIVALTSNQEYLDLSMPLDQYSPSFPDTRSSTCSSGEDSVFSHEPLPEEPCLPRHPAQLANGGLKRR
Sequence of PDGFR-β (P09619 33-1106): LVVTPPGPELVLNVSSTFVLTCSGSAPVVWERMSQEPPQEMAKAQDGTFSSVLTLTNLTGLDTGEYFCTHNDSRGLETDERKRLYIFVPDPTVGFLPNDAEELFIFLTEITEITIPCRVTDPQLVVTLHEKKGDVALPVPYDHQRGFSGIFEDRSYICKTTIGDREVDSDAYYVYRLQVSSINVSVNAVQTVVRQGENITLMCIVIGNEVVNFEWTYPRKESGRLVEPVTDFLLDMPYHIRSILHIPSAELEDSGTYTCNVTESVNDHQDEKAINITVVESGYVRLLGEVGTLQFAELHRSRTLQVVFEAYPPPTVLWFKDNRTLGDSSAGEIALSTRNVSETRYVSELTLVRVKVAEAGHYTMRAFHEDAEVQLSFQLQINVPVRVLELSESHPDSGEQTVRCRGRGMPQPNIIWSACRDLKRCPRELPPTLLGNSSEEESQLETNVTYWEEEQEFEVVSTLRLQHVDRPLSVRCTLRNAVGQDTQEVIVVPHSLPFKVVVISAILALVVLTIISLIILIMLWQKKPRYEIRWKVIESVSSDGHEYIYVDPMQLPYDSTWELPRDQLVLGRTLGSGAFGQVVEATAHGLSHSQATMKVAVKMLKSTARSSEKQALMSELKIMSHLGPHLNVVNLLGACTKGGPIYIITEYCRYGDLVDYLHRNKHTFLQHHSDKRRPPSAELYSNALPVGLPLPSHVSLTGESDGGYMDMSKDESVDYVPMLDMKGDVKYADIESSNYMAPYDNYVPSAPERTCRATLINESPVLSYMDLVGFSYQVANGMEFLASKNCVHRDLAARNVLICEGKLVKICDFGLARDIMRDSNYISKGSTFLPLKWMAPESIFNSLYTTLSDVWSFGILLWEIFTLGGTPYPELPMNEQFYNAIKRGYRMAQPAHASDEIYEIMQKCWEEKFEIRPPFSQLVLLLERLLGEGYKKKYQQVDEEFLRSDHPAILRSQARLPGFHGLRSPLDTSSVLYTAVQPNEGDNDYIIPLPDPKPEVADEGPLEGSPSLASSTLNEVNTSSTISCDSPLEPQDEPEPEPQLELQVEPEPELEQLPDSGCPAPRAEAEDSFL

As for `CC(C)c1nc2ccccc2n1CC(=O)N/N=C/c1cccc(OCc2ccccc2)c1` [Compound 17a, (E)-N′-(3-(Benzyloxy)benzylidene)-2-(2-isopropyl-1H-benzo[d]imidazol-1-yl)acetohydrazide], in experiment [1], inhibition was half-maximal at 50 ± 2 nM (IC50). For the same compound, in experiment [2], the IC50 came out at 110 ± 4 nM. Moreover, in experiment [3] (HepG2, 2 μM), the “early apoptotic phase (Q4)” value was found to be 2.90% and the “late apoptotic phase (Q2)” value is 8.89%. Moreover, in experiment [3] (HepG2, 5 μM), the “early apoptotic phase (Q4)” value is 6.32% and the “late apoptotic phase (Q2)” value is on record as 9.53%. In experiment [4], the “Freq S” value is 26.96% and the “effect on the HepG2 cell cycle” value was “arrests the cell cycle at the G2/M phase”. In experiment [4] (control 13.43%), the “percent of cells accumulated in the G2 phase (Freq G2)” value turned out to be 25.86%. Moreover, in experiment [4] (control 51.34%), the “percent of cell distribution in the G1 phase (Freq G1)” value was found to be 46.96%.
